Consider three compounds from patent US20250282775A1, “SOLID FORM OF 3-((1R,3R)-1-(2,6-DIFLUORO-4-((1-(3- FLUOROPROPYL)AZETIDIN-3-YL)AMINO)PHENYL)-3-METHYL-1,3,4,9- TETRAHYDRO-2H-PYRIDO[3,4-B]INDOL-2-YL)-2,2-DIFLUOROPROPAN-1-OL TARTRATE” (Hoffmann-La Roche Inc., priority 2022, published 2025).

Holding throughout (assay type): physicochemical
A short description of series [1]: Particle size distribution by laser diffraction. To be noted: API lot. The procedure:
The particle size distribution of crystalline 3-((1R,3R)-1-(2,6-difluoro-4-((1-(3-fluoropropyl)azetidin-3-yl)amino)phenyl)-3-methyl-1,3,4,9-tetrahydro-2H-pyrido[3,4-b]indol-2-yl)-2,2-difluoropropan-1-ol tartrate of the invention was analyzed by laser diffraction as described in the USP <429> for Laser Diffraction Measurement of Particle Size and in the European Pharmacopoeia chapter 2.9.31 Particle size analysis by Laser Diffraction. Details of the apparatus used and measurements are given in Example 3.
For the measurement, a Malvern MasterSizer 3000 device from Malvern, UK, coupled with a liquid dispersion unit Hydro MV®, Malvern, UK was used. The crystalline Giredestrant tartrate as obtained from Example 1 or 2 was dispersed in dispersion medium consisting in technical grade n-heptane with 0.2% w/w.-% Span 85 (Sorbitane trioleate, e.g. Fluka/Sigma Cat. Nr. 85549 or equivalent) non-saturated.
Procedure: the crystalline Giredestrant tartrate is directly added in the Hydro MV dispersion unit and stirred at 2500 rpm achieving an appropriate optical concentration (between 5% and 25% optical concentrations).
Measurement: The test dispersion was measured and the cumulative volume dispersion was determined using the laser diffraction instrument mentioned above in accordance with the instruction manual. Measurements were performed after 2 minutes stirring time. The Fraunhofer approximation was used for the particle diameters calculations, Opaque Particle was used for the Particle type and General purpose was used for the Analysis model. The background and the measuring duration were set at 30 seconds.
Three independent samples were measured one time. The average particle size distribution in volume at the undersize values of 10%, 50% and 90% (×10, ×50 and ×90) percentiles were evaluated from the cumulative distribution.
(§1) The following table illustrates the improved manufacturability properties of the crystalline API that is prepared according to the process of the present invention (lot “BS2008SA02”). The E1 lot was prepared according to the process described in WO2019245974.

The nature of series [2]: Bulk density, tapped density and flowability of API. As to conditions: for Bulk Density / Tapped Density: API lot. The protocol:
as §1

The nature of series [3]: BET surface area of API lots. As to conditions: API lot. The procedure:
as §1

The nature of series [4]: Effect of compression on API degradation (HPLC). As to conditions: 60° C./11% RH, containers open, up to 4 weeks, tartrate. The protocol: The effect of compression on API degradation was investigated. Samples of uncompressed API (neat API powder as-is) and compressed API (compact) were aged at 60° C./11% RH with containers open for up to 1 month. Samples were assayed by HPLC (see Example 10). […] The following HPLC method was used to measure the RRCs described herein: [table]

Where [5] appears, read: Form B as prepared per WO2019245974.

Regarding `C[C@@H]1Cc2c([nH]c3ccccc23)[C@@H](c2c(F)cc(NC3CN(CCCF)C3)cc2F)N1CC(F)(F)CO.O=C(O)C(O)C(O)C(=O)O` [711-005-5467-001 (E1)], in series [1], the D10 stood at 2 μm, the D50 was found to be 8 μm and the D90 worked out at 27 μm. In series [2], the “Bulk Density” value was determined as 0.31 g/mL and the “Tapped Density” value is reported as 0.41 g/mL. Moreover, the “BET SA” value in series [3] is 2.9 m2/g.
In series [1], `C[C@@H]1Cc2c([nH]c3ccccc23)[C@@H](c2c(F)cc(NC3CN(CCCF)C3)cc2F)N1CC(F)(F)CO.O=C(O)C(O)C(O)C(=O)O` [BS2008SA02] registered a D10 of 30 μm, a D50 of 41 μm and a D90 of 56 μm. Further, in series [2], the “Bulk Density” value stood at 0.57 g/mL and the “Tapped Density” value was determined as 0.64 g/mL. Also, the “BET SA” value in series [3] came out at 1.7 m2/g.
As for `C[C@@H]1Cc2c([nH]c3ccccc23)[C@@H](c2c(F)cc(NC3CN(CCCF)C3)cc2F)N1CC(F)(F)CO.O=C(O)C(O)C(O)C(=O)O` [giredestrant tartrate, 3-((1R,3R)-1-(2,6-difluoro-4-((1-(3-fluoropropyl)azetidin-3-yl)amino)phenyl)-3-methyl-1,3,4,9-tetrahydro-2H-pyrido[3,4-b]indol-2-yl)-2,2-difluoropropan-1-ol tartrate], in series [2] (setting [5]), the “bulk density (in words)” value is recorded as “low bulk density” and the flowability entry is listed as “poor flowability”. For the same compound, the “growth of the impurity at RRT=0.58” value in series [4] (listed as compressed API) was “faster growth rate”. Also, the “growth of the impurity at RRT=0.58” value in series [4] (listed as uncompressed API) is listed as “growth of the impurity at RRT=0.58 was observed”.
